Laboratory results taken from the supplement of paper PMC9013687.
± gives the standard deviation of the averaged measurements.

Experiments:
Danio rerio embryo [1] = test: EC50 Yolk sac size_Increase; conditions: exposure time: 4 dpf
Procedure: (§1)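 Zebrafish embryos (UFZ-OBI strain) were exposed from 2 hpf for 48 h (2 dpf) or 96 h (4 dpf) at 28 °C; spontaneous tail coiling was scored at 25 hpf. Morphological features from automated image analysis (FishInspector), heart rate and locomotor response were fitted with drc models. Quantal endpoints were dichotomised at 2.5 SD from controls and fitted with a log-logistic model; heart rate, pigmentation and STC were normalised to the replicate control mean. Betamethasone was tested as betamethasone dipropionate, diflorasone as diflorasone diacetate.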

Danio rerio embryo [2] = test: EC10 Otolith-eye distance_Decrease; higher = less potent; conditions: exposure time: 4 dpf
Procedure: as §1

Danio rerio embryo [3] = test: EC50 Body length_Decrease
Procedure: as §1

Danio rerio embryo [4] = test: EC10 Curvature_Increase; higher = less potent
Procedure: as §1

Danio rerio embryo [5] = test: EC50 Curvature_Increase
Procedure: as §1

Danio rerio embryo [6] = test: EC10 Pericard size_Increase; higher = less potent; conditions: exposure time: 4 dpf
Procedure: as §1

Danio rerio embryo [7] = test: EC20 Eye-jaw distance_Decrease; higher = less potent; conditions: exposure time: 4 dpf
Procedure: as §1

Danio rerio embryo [8] = conditions: for EC50 STC decrease: exposure time: 25 h
Procedure: as §1

Danio rerio embryo [9] = test: EC50 Eye-jaw distance_Decrease; conditions: exposure time: 4 dpf
Procedure: as §1

Danio rerio embryo [10] = test: EC20 Curvature_Increase; higher = less potent
Procedure: as §1

Danio rerio embryo [11] = test: EC10 Bladder size_Decrease; higher = less potent; conditions: exposure time: 4 dpf
Procedure: as §1

Danio rerio embryo [12] = test: EC20 Otolith-eye distance_Decrease; higher = less potent; conditions: exposure time: 4 dpf
Procedure: as §1

Danio rerio embryo [13] = test: EC10 Yolk sac size_Increase; higher = less potent; conditions: exposure time: 4 dpf
Procedure: as §1

Danio rerio embryo [14] = conditions: exposure time: 4 dpf
Procedure: as §1

Danio rerio embryo [15] = test: EC50 Otolith-eye distance_Decrease; conditions: exposure time: 4 dpf
Procedure: as §1

Danio rerio embryo [16] = test: EC20 Pericard size_Increase; higher = less potent; conditions: exposure time: 4 dpf
Procedure: as §1

Danio rerio embryo [17] = test: EC10 Body length_Decrease; higher = less potent
Procedure: as §1

Danio rerio embryo [18] = test: EC20 Body length_Decrease; higher = less potent
Procedure: as §1

Danio rerio embryo [19] = test: EC20 LMR dark; higher = less potent; conditions: exposure time: 4 dpf
Procedure: as §1

Danio rerio embryo [20] = test: EC50 Pericard size_Increase; conditions: exposure time: 4 dpf
Procedure: as §1

Danio rerio embryo [21] = test: EC10 Eye-jaw distance_Decrease; higher = less potent; conditions: exposure time: 4 dpf
Procedure: as §1

Danio rerio embryo [22] = test: spontaneous tail coiling frequency (coils/min/embryo); higher = more spontaneous movement; conditions: 25 hpf
Procedure: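 Spontaneous tail coilings of zebrafish embryos exposed from 2 hpf were recorded at 24-25 hpf in 1-min videos and detected by a KNIME workflow from grey-value variance. Betamethasone was tested as the dipropionate, diflorasone as the diacetate.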

Danio rerio embryo [23] = test: EC20 Yolk sac size_Increase; higher = less potent; conditions: exposure time: 4 dpf
Procedure: as §1

Danio rerio embryo [24] = test: EC10 LMR dark; higher = less potent; conditions: exposure time: 4 dpf
Procedure: as §1

Danio rerio embryo [25] = test: EC20 Bladder size_Decrease; higher = less potent; conditions: exposure time: 4 dpf
Procedure: as §1

Danio rerio embryo [26] = test: EC10 Any effect; higher = less potent
Procedure: as §1

Danio rerio embryo [27] = test: EC50 Bladder size_Decrease; conditions: exposure time: 4 dpf
Procedure: as §1

Danio rerio embryo [28] = test: EC20 Any effect; higher = less potent
Procedure: as §1

Danio rerio embryo [29] = test: EC20 Eye size_Decrease; higher = less potent
Procedure: as §1

CCCNCC(O)COc1ccccc1C(=O)CCc1ccccc1 (stereo not drawn) [Propafenone]
Conditions	EC10 Bladder size Decrease [µM]	EC10 Eye-jaw distance Decrease [µM]	EC10 LMR dark [µM]	EC10 Otolith-eye distance Decrease [µM]	EC10 Pericard size Increase [µM]	EC10 Yolk sac size Increase [µM]	EC20 Bladder size Decrease [µM]	EC20 Eye-jaw distance Decrease [µM]	EC20 LMR dark [µM]	EC20 Otolith-eye distance Decrease [µM]	EC20 Pericard size Increase [µM]	EC20 Yolk sac size Increase [µM]	EC50 Bladder size Decrease [µM]	EC50 Eye-jaw distance Decrease [µM]	EC50 LMR dark [µM]	EC50 Otolith-eye distance Decrease [µM]	EC50 Pericard size Increase [µM]	EC50 STC decrease [µM]	EC50 Yolk sac size Increase [µM]
Danio rerio embryo [1]	–	–	–	–	–	–	–	–	–	–	–	–	–	–	–	–	–	–	20.5
Danio rerio embryo [2]	–	–	–	33	–	–	–	–	–	–	–	–	–	–	–	–	–	–	–
Danio rerio embryo [6]	–	–	–	–	17.8	–	–	–	–	–	–	–	–	–	–	–	–	–	–
Danio rerio embryo [7]	–	–	–	–	–	–	–	18.8	–	–	–	–	–	–	–	–	–	–	–
Danio rerio embryo [8]	–	–	–	–	–	–	–	–	–	–	–	–	–	–	–	–	–	47.5	–
Danio rerio embryo [9]	–	–	–	–	–	–	–	–	–	–	–	–	–	20.6	–	–	–	–	–
Danio rerio embryo [11]	6.71	–	–	–	–	–	–	–	–	–	–	–	–	–	–	–	–	–	–
Danio rerio embryo [12]	–	–	–	–	–	–	–	–	–	33.9	–	–	–	–	–	–	–	–	–
Danio rerio embryo [13]	–	–	–	–	–	17.3	–	–	–	–	–	–	–	–	–	–	–	–	–
Danio rerio embryo [14]	–	–	–	–	–	–	–	–	–	–	–	–	–	–	11.2	–	–	–	–
Danio rerio embryo [15]	–	–	–	–	–	–	–	–	–	–	–	–	–	–	–	35.5	–	–	–
Danio rerio embryo [16]	–	–	–	–	–	–	–	–	–	–	18.8	–	–	–	–	–	–	–	–
Danio rerio embryo [19]	–	–	–	–	–	–	–	–	4.28	–	–	–	–	–	–	–	–	–	–
Danio rerio embryo [20]	–	–	–	–	–	–	–	–	–	–	–	–	–	–	–	–	20.6	–	–
Danio rerio embryo [21]	–	17.8	–	–	–	–	–	–	–	–	–	–	–	–	–	–	–	–	–
Danio rerio embryo [23]	–	–	–	–	–	–	–	–	–	–	–	18.4	–	–	–	–	–	–	–
Danio rerio embryo [24]	–	–	2.43	–	–	–	–	–	–	–	–	–	–	–	–	–	–	–	–
Danio rerio embryo [25]	–	–	–	–	–	–	7.09	–	–	–	–	–	–	–	–	–	–	–	–
Danio rerio embryo [27]	–	–	–	–	–	–	–	–	–	–	–	–	7.8	–	–	–	–	–	–

Conditions	EC10 Any effect [µM]	EC10 Body length Decrease [µM]	EC10 Curvature Increase [µM]	EC20 Any effect [µM]	EC20 Body length Decrease [µM]	EC20 Curvature Increase [µM]	EC50 Any effect [µM]	EC50 Body length Decrease [µM]	EC50 Curvature Increase [µM]	EC50 LMR ligth increase [µM]	EC50 Pigmentation increase [µM]	spontaneous tail coiling frequency
Danio rerio embryo [3], exposure time: 2 dpf	–	–	–	–	–	–	–	79.5	–	–	–	–
Danio rerio embryo [4], exposure time: 2 dpf	–	–	27.6	–	–	–	–	–	–	–	–	–
Danio rerio embryo [5], exposure time: 2 dpf	–	–	–	–	–	–	–	–	131	–	–	–
Danio rerio embryo [8], exposure time: 4 dpf	–	–	–	–	–	–	20.6	–	–	19.6	34.7	–
Danio rerio embryo [10], exposure time: 2 dpf	–	–	–	–	–	49	–	–	–	–	–	–
Danio rerio embryo [17], exposure time: 2 dpf	–	20.8	–	–	–	–	–	–	–	–	–	–
Danio rerio embryo [18], exposure time: 2 dpf	–	–	–	–	34.1	–	–	–	–	–	–	–
Danio rerio embryo [22], 8.8 µM	–	–	–	–	–	–	–	–	–	–	–	1.68
Danio rerio embryo [22], 13.2 µM	–	–	–	–	–	–	–	–	–	–	–	1.86
Danio rerio embryo [22], 19.8 µM	–	–	–	–	–	–	–	–	–	–	–	1.81 ± 0.55
Danio rerio embryo [22], 29.6 µM	–	–	–	–	–	–	–	–	–	–	–	0.98
Danio rerio embryo [22], 44.5 µM	–	–	–	–	–	–	–	–	–	–	–	1.23 ± 1.2
Danio rerio embryo [22], 66.7 µM	–	–	–	–	–	–	–	–	–	–	–	1
Danio rerio embryo [22], 100 µM	–	–	–	–	–	–	–	–	–	–	–	0.422 ± 0.49
Danio rerio embryo [22], 142.9 µM	–	–	–	–	–	–	–	–	–	–	–	0.49
Danio rerio embryo [26], exposure time: 4 dpf	17.9	–	–	–	–	–	–	–	–	–	–	–
Danio rerio embryo [28], exposure time: 4 dpf	–	–	–	18.9	–	–	–	–	–	–	–	–

C[Si](Cn1cncn1)(c1ccc(F)cc1)c1ccc(F)cc1 [Flusilazole]
Conditions	EC10 Bladder size Decrease [µM]	EC10 Eye-jaw distance Decrease [µM]	EC10 LMR dark [µM]	EC10 Otolith-eye distance Decrease [µM]	EC10 Pericard size Increase [µM]	EC10 Yolk sac size Increase [µM]	EC20 Bladder size Decrease [µM]	EC20 Eye-jaw distance Decrease [µM]	EC20 LMR dark [µM]	EC20 Otolith-eye distance Decrease [µM]	EC20 Pericard size Increase [µM]	EC20 Yolk sac size Increase [µM]	EC50 Bladder size Decrease [µM]	EC50 Eye-jaw distance Decrease [µM]	EC50 LMR dark [µM]	EC50 Otolith-eye distance Decrease [µM]	EC50 Pericard size Increase [µM]	EC50 STC decrease [µM]	EC50 Yolk sac size Increase [µM]
Danio rerio embryo [1]	–	–	–	–	–	–	–	–	–	–	–	–	–	–	–	–	–	–	10.1
Danio rerio embryo [2]	–	–	–	3.65	–	–	–	–	–	–	–	–	–	–	–	–	–	–	–
Danio rerio embryo [6]	–	–	–	–	5.02	–	–	–	–	–	–	–	–	–	–	–	–	–	–
Danio rerio embryo [7]	–	–	–	–	–	–	–	2.67	–	–	–	–	–	–	–	–	–	–	–
Danio rerio embryo [8]	–	–	–	–	–	–	–	–	–	–	–	–	–	–	–	–	–	8.34	–
Danio rerio embryo [9]	–	–	–	–	–	–	–	–	–	–	–	–	–	3.73	–	–	–	–	–
Danio rerio embryo [11]	1.46	–	–	–	–	–	–	–	–	–	–	–	–	–	–	–	–	–	–
Danio rerio embryo [12]	–	–	–	–	–	–	–	–	–	4.25	–	–	–	–	–	–	–	–	–
Danio rerio embryo [13]	–	–	–	–	–	3.89	–	–	–	–	–	–	–	–	–	–	–	–	–
Danio rerio embryo [14]	–	–	–	–	–	–	–	–	–	–	–	–	–	–	2.77	–	–	–	–
Danio rerio embryo [15]	–	–	–	–	–	–	–	–	–	–	–	–	–	–	–	5.51	–	–	–
Danio rerio embryo [16]	–	–	–	–	–	–	–	–	–	–	5.53	–	–	–	–	–	–	–	–
Danio rerio embryo [19]	–	–	–	–	–	–	–	–	1.72	–	–	–	–	–	–	–	–	–	–
Danio rerio embryo [20]	–	–	–	–	–	–	–	–	–	–	–	–	–	–	–	–	6.51	–	–
Danio rerio embryo [21]	–	2.2	–	–	–	–	–	–	–	–	–	–	–	–	–	–	–	–	–
Danio rerio embryo [23]	–	–	–	–	–	–	–	–	–	–	–	5.53	–	–	–	–	–	–	–
Danio rerio embryo [24]	–	–	1.3	–	–	–	–	–	–	–	–	–	–	–	–	–	–	–	–
Danio rerio embryo [25]	–	–	–	–	–	–	1.69	–	–	–	–	–	–	–	–	–	–	–	–
Danio rerio embryo [27]	–	–	–	–	–	–	–	–	–	–	–	–	2.14	–	–	–	–	–	–

Conditions	EC10 Any effect [µM]	EC10 Body length Decrease [µM]	EC10 Curvature Increase [µM]	EC20 Any effect [µM]	EC20 Body length Decrease [µM]	EC20 Curvature Increase [µM]	EC20 Eye size Decrease [µM]	EC50 Any effect [µM]	EC50 Body length Decrease [µM]	EC50 Curvature Increase [µM]	spontaneous tail coiling frequency
Danio rerio embryo [3], exposure time: 2 dpf	–	–	–	–	–	–	–	–	10.3	–	–
Danio rerio embryo [3], exposure time: 4 dpf	–	–	–	–	–	–	–	–	3.04	–	–
Danio rerio embryo [4], exposure time: 2 dpf	–	–	6.73	–	–	–	–	–	–	–	–
Danio rerio embryo [4], exposure time: 4 dpf	–	–	2.07	–	–	–	–	–	–	–	–
Danio rerio embryo [5], exposure time: 2 dpf	–	–	–	–	–	–	–	–	–	9.58	–
Danio rerio embryo [5], exposure time: 4 dpf	–	–	–	–	–	–	–	–	–	5.85	–
Danio rerio embryo [8], exposure time: 2 dpf	–	–	–	–	–	–	–	7.6	–	–	–
Danio rerio embryo [8], exposure time: 4 dpf	–	–	–	–	–	–	–	2.65	–	–	–
Danio rerio embryo [10], exposure time: 2 dpf	–	–	–	–	–	7.67	–	–	–	–	–
Danio rerio embryo [10], exposure time: 4 dpf	–	–	–	–	–	3.03	–	–	–	–	–
Danio rerio embryo [17], exposure time: 2 dpf	–	6.91	–	–	–	–	–	–	–	–	–
Danio rerio embryo [17], exposure time: 4 dpf	–	2.31	–	–	–	–	–	–	–	–	–
Danio rerio embryo [18], exposure time: 2 dpf	–	–	–	–	8.01	–	–	–	–	–	–
Danio rerio embryo [18], exposure time: 4 dpf	–	–	–	–	2.55	–	–	–	–	–	–
Danio rerio embryo [22], 1.98167 µM	–	–	–	–	–	–	–	–	–	–	2.65
Danio rerio embryo [22], 3.96335 µM	–	–	–	–	–	–	–	–	–	–	1.93
Danio rerio embryo [22], 6.3 µM	–	–	–	–	–	–	–	–	–	–	1.95
Danio rerio embryo [22], 7.92669 µM	–	–	–	–	–	–	–	–	–	–	1.22
Danio rerio embryo [22], 9.4 µM	–	–	–	–	–	–	–	–	–	–	1.84
Danio rerio embryo [22], 14.1 µM	–	–	–	–	–	–	–	–	–	–	1.52
Danio rerio embryo [22], 15.8534 µM	–	–	–	–	–	–	–	–	–	–	0
Danio rerio embryo [22], 21.1 µM	–	–	–	–	–	–	–	–	–	–	0
Danio rerio embryo [22], 31.7 µM	–	–	–	–	–	–	–	–	–	–	0
Danio rerio embryo [22], 31.7068 µM	–	–	–	–	–	–	–	–	–	–	0
Danio rerio embryo [22], 47.6 µM	–	–	–	–	–	–	–	–	–	–	0
Danio rerio embryo [26], exposure time: 2 dpf	5.28	–	–	–	–	–	–	–	–	–	–
Danio rerio embryo [26], exposure time: 4 dpf	1.6	–	–	–	–	–	–	–	–	–	–
Danio rerio embryo [28], exposure time: 2 dpf	–	–	–	6.04	–	–	–	–	–	–	–
Danio rerio embryo [28], exposure time: 4 dpf	–	–	–	1.92	–	–	–	–	–	–	–
Danio rerio embryo [29], exposure time: 2 dpf	–	–	–	–	–	–	21.8	–	–	–	–
Danio rerio embryo [29], exposure time: 4 dpf	–	–	–	–	–	–	4.86	–	–	–	–
